Test results reported in publication PMC12520178, “Turn-engineering tunes the conformational rigidity of β-hairpin AMPs in achieving membrane selectivity and killing drug-resistant ESKAPE pathogens” (Chemical Science, 2025).
In brackets after ≈: the same amount, converted by molar mass. Like-named read-outs stand apart in the source and are kept apart here. Where a SMILES comes first, the peptide text is derived from it. Bridges are numbered along the chain shown (N, C = ends). [ ]: non-standard residue; d: D form. NMeR = CN[C@@H](CCCNC(=N)N)C(=O)O; dNMeR = CN[C@H](CCCNC(=N)N)C(=O)O

What was measured:
[1] = tested on: Escherichia coli; format: cell-based
[2] = tested on: Pseudomonas aeruginosa; format: cell-based
[3] = tested on: Acinetobacter baumannii; format: cell-based
[4] = tested on: Klebsiella pneumoniae; format: cell-based
[5] = tested on: Staphylococcus aureus; assay: microbe, parasite or virus in culture; format: cell-based
[6] = tested on: human red blood cells; settings: red cells of human

Row | Compound | MIC90 [1] [µM] | MIC (μM) ec [1] [µM] | MIC (μM) pa [2] [µM] | MIC (μM) ab [3] [µM] | MIC (μM) kp [4] [µM] | MIC (μM) sa [5] [µM] | MHC10 (μM), minimum hemolytic concentration [6] [µM] | MIC ([5]; Staphylococcus aureus, read-out: MIC (μM) sa) [µM] | MIC (μM) pa ([2]; Pseudomonas aeruginosa, non-resistant, microbroth dilution, n = 5) [µM] | MIC (μM) ab ([3]; Acinetobacter baumannii, non-resistant, microbroth dilution, n = 5) [µM] | MIC (μM) kp ([4]; Klebsiella pneumoniae, non-resistant, microbroth dilution, n = 5) [µM]
1 | CC(C)[C@@H]1NC(=O)[C@@H](NC(=O)[C@H](Cc2c[nH]c3ccccc23)NC(=O)[C@@H](N)CCCNC(=N)N)CSSC[C@@H](C(=O)N[C@@H](Cc2c[nH]c3ccccc23)C(=O)O)NC(=O)[C@H](CCCNC(=N)N)NC(=O)[C@H](CCCNC(=N)N)NC(=O)[C@H](Cc2ccc(O)cc2)NC(=O)[C@H](CCCNC(=N)N)NC(=O)[C@H](C(C)C)NC(=O)[C@H](CCCNC(=N)N)N(C)C(=O)[C@@H](C)NC(=O)[C@H](C(C)C)NC(=O)[C@H](CCCNC(=N)N)NC(=O)[C@H](C)NC(=O)[C@H](Cc2ccc(O)cc2)NC1=O [1a] (H-RWCVYARV[dA][NMeR]VRYRRCW-OH; disulfide 3-16) | 0.4 (≈ 0.925 µg/mL) | 0.4 (≈ 0.925 µg/mL) | 0.8 (≈ 1.85 µg/mL) | 0.4 (≈ 0.925 µg/mL) | 0.8 (≈ 1.85 µg/mL) | 0.8 (≈ 1.85 µg/mL) | – | – | – | – | –
2 | CC(C)[C@@H]1NC(=O)[C@@H](NC(=O)[C@H](Cc2c[nH]c3ccccc23)NC(=O)[C@@H](N)CCCNC(=N)N)CSSC[C@@H](C(=O)N[C@@H](Cc2c[nH]c3ccccc23)C(=O)O)NC(=O)[C@H](CCCNC(=N)N)NC(=O)[C@H](CCCNC(=N)N)NC(=O)[C@H](Cc2ccc(O)cc2)NC(=O)[C@H](CCCNC(=N)N)NC(=O)[C@H](C(C)C)NC(=O)[C@H](CCCNC(=N)N)N(C)C(=O)[C@@H](C(C)C)NC(=O)[C@H](C(C)C)NC(=O)[C@H](CCCNC(=N)N)NC(=O)[C@H](C)NC(=O)[C@H](Cc2ccc(O)cc2)NC1=O [1b] (H-RWCVYARV[dV][NMeR]VRYRRCW-OH; disulfide 3-16) | 0.2 (≈ 0.468 µg/mL) | 0.2 (≈ 0.468 µg/mL) | 0.8 (≈ 1.87 µg/mL) | 0.8 (≈ 1.87 µg/mL) | 0.4 (≈ 0.936 µg/mL) | 0.4 (≈ 0.936 µg/mL) | – | – | – | – | –
3 | CC(C)[C@H](NC(=O)CNC(=O)[C@H](CCCNC(=N)N)NC(=O)[C@@H](NC(=O)[C@H](CCCNC(=N)N)NC(=O)[C@H](C)NC(=O)[C@H](Cc1ccc(O)cc1)NC(=O)[C@@H](NC(=O)[C@@H](NC(=O)[C@H](Cc1c[nH]c2ccccc12)NC(=O)[C@@H](N)CCCNC(=N)N)[C@@H](C)O)C(C)C)C(C)C)C(=O)N[C@@H](CCCNC(=N)N)C(=O)N[C@@H](Cc1ccc(O)cc1)C(=O)N[C@@H](CCCNC(=N)N)C(=O)N[C@@H](CCCNC(=N)N)C(=O)N[C@H](C(=O)N[C@@H](Cc1c[nH]c2ccccc12)C(=O)O)[C@@H](C)O [1c] (H-RWTVYARVRGVRYRRTW-OH) | 2.4 (≈ 5.48 µg/mL) | 2.4 (≈ 5.48 µg/mL) | 12.5 (≈ 28.5 µg/mL) | 3.12 (≈ 7.12 µg/mL) | 1.6 (≈ 3.65 µg/mL) | 2.4 (≈ 5.48 µg/mL) | – | – | – | – | –
4 | CC(C)[C@H](NC(=O)[C@H](CCCNC(=N)N)NC(=O)[C@H](C)NC(=O)[C@H](Cc1ccc(O)cc1)NC(=O)[C@@H](NC(=O)[C@@H](NC(=O)[C@H](Cc1c[nH]c2ccccc12)NC(=O)[C@@H](N)CCCNC(=N)N)[C@@H](C)O)C(C)C)C(=O)N[C@H](C)C(=O)N(C)[C@@H](CCCNC(=N)N)C(=O)N[C@H](C(=O)N[C@@H](CCCNC(=N)N)C(=O)N[C@@H](Cc1ccc(O)cc1)C(=O)N[C@@H](CCCNC(=N)N)C(=O)N[C@@H](CCCNC(=N)N)C(=O)N[C@H](C(=O)N[C@@H](Cc1c[nH]c2ccccc12)C(=O)O)[C@@H](C)O)C(C)C [1d] (H-RWTVYARV[dA][NMeR]VRYRRTW-OH) | 0.4 (≈ 0.924 µg/mL) | 0.4 (≈ 0.924 µg/mL) | 2.4 (≈ 5.54 µg/mL) | 1.2 (≈ 2.77 µg/mL) | 0.4 (≈ 0.924 µg/mL) | 0.6 (≈ 1.39 µg/mL) | 100 | – | – | – | –
5 | CC(C)[C@H](NC(=O)[C@H](CCCNC(=N)N)NC(=O)[C@H](C)NC(=O)[C@H](Cc1ccc(O)cc1)NC(=O)[C@@H](NC(=O)[C@@H](NC(=O)[C@H](Cc1c[nH]c2ccccc12)NC(=O)[C@@H](N)CCCNC(=N)N)[C@@H](C)O)C(C)C)C(=O)N[C@@H](C(=O)N(C)[C@@H](CCCNC(=N)N)C(=O)N[C@H](C(=O)N[C@@H](CCCNC(=N)N)C(=O)N[C@@H](Cc1ccc(O)cc1)C(=O)N[C@@H](CCCNC(=N)N)C(=O)N[C@@H](CCCNC(=N)N)C(=O)N[C@H](C(=O)N[C@@H](Cc1c[nH]c2ccccc12)C(=O)O)[C@@H](C)O)C(C)C)C(C)C [1e] (H-RWTVYARV[dV][NMeR]VRYRRTW-OH) | 0.6 (≈ 1.4 µg/mL) | 0.6 (≈ 1.4 µg/mL) | 0.8 (≈ 1.87 µg/mL) | 0.4 (≈ 0.935 µg/mL) | 1.6 (≈ 3.74 µg/mL) | 2.6 (≈ 6.08 µg/mL) | – | – | – | – | –
6 | CC(C)[C@@H](NC(=O)[C@@H](CCCNC(=N)N)N(C)C(=O)[C@H](C)NC(=O)[C@H](NC(=O)[C@@H](CCCNC(=N)N)NC(=O)[C@@H](C)NC(=O)[C@@H](Cc1ccc(O)cc1)NC(=O)[C@H](NC(=O)[C@H](NC(=O)[C@@H](Cc1c[nH]c2ccccc12)NC(=O)[C@H](N)CCCNC(=N)N)[C@H](C)O)C(C)C)C(C)C)C(=O)N[C@H](CCCNC(=N)N)C(=O)N[C@H](Cc1ccc(O)cc1)C(=O)N[C@H](CCCNC(=N)N)C(=O)N[C@H](CCCNC(=N)N)C(=O)N[C@@H](C(=O)N[C@H](Cc1c[nH]c2ccccc12)C(=O)O)[C@H](C)O [1f] (H-[dR][dW][dT][dV][dY][dA][dR][dV]A[dNMeR][dV][dR][dY][dR][dR][dT][dW]-OH) | 0.4 (≈ 0.924 µg/mL) | 0.4 (≈ 0.924 µg/mL) | 3.1 (≈ 7.16 µg/mL) | 3.1 (≈ 7.16 µg/mL) | 3.1 (≈ 7.16 µg/mL) | 0.8 (≈ 1.85 µg/mL) | 100 | – | – | – | –
7 | CC(C)C[C@H](NC(=O)[C@H](CCCNC(=N)N)NC(=O)CNC(=O)CNC(=O)[C@@H](N)CCCNC(=N)N)C(=O)N[C@H]1CSSC[C@@H](C(=O)N[C@H](C(=O)NCC(=O)N[C@@H](CCCNC(=N)N)C(N)=O)C(C)C)NC(=O)[C@H](C(C)C)NC(=O)[C@@H]2CSSC[C@H](NC(=O)[C@H](Cc3ccc(O)cc3)NC1=O)C(=O)N[C@@H](CCCNC(=N)N)C(=O)N[C@H](C)C(=O)N(C)[C@@H](CCCNC(=N)N)C(=O)N[C@@H](Cc1ccccc1)C(=O)N2 [2a] (H-RGGRLCYCR[dA][NMeR]FCVCVGR-NH2; disulfide 6-15, 8-13) | 0.5 (≈ 1.04 µg/mL) | – | – | – | – | – | 3.12 | – | – | – | –
8 | CC(C)C[C@H](NC(=O)[C@H](CCCNC(=N)N)NC(=O)CNC(=O)CNC(=O)[C@@H](N)CCCNC(=N)N)C(=O)N[C@H]1CSSC[C@@H](C(=O)N[C@H](C(=O)NCC(=O)N[C@@H](CCCNC(=N)N)C(N)=O)C(C)C)NC(=O)[C@H](C(C)C)NC(=O)[C@@H]2CSSC[C@H](NC(=O)[C@H](Cc3ccc(O)cc3)NC1=O)C(=O)N[C@@H](CCCNC(=N)N)C(=O)N[C@H](C(C)C)C(=O)N(C)[C@@H](CCCNC(=N)N)C(=O)N[C@@H](Cc1ccccc1)C(=O)N2 [2b] (H-RGGRLCYCR[dV][NMeR]FCVCVGR-NH2; disulfide 6-15, 8-13) | 0.4 (≈ 0.845 µg/mL) | – | – | – | – | – | 3.12 | – | – | – | –
9 | CC(C)C[C@H](NC(=O)[C@H](CCCNC(=N)N)NC(=O)CNC(=O)CNC(=O)[C@@H](N)CCCNC(=N)N)C(=O)N[C@H](C(=O)N[C@@H](Cc1ccc(O)cc1)C(=O)N[C@H](C(=O)N[C@@H](CCCNC(=N)N)C(=O)N[C@@H](C(=O)N(C)[C@@H](CCCNC(=N)N)C(=O)N[C@@H](Cc1ccccc1)C(=O)N[C@H](C(=O)N[C@H](C(=O)N[C@H](C(=O)N[C@H](C(=O)NCC(=O)N[C@@H](CCCNC(=N)N)C(N)=O)C(C)C)[C@@H](C)O)C(C)C)[C@@H](C)O)C(C)C)[C@@H](C)O)[C@@H](C)O [2e] (H-RGGRLTYTR[dV][NMeR]FTVTVGR-NH2) | 0.3 (≈ 0.633 µg/mL) | – | – | – | – | – | 50 | – | – | – | –
10 | CC(C)[C@H](NC(=O)[C@H](CCCNC(=N)N)NC(=O)[C@H](Cc1ccccc1)NC(=O)[C@@H](NC(=O)[C@H](Cc1c[nH]c2ccccc12)NC(=O)[C@H](CCCNC(=N)N)NC(=O)[C@@H](N)CCCNC(=N)N)[C@@H](C)O)C(=O)N[C@H](C(=O)N[C@@H](Cc1ccc(O)cc1)C(=O)N[C@@H](C(=O)N(C)[C@@H](CCCNC(=N)N)C(=O)N[C@@H](Cc1ccccc1)C(=O)N[C@H](C(=O)N[C@@H](Cc1ccc(O)cc1)C(=O)N[C@@H](CCCNC(=N)N)C(=O)N[C@@H](CCCCN)C(=O)N[C@H](C(=O)N[C@@H](CCCNC(=N)N)C(N)=O)[C@@H](C)O)[C@@H](C)O)C(C)C)[C@@H](C)O [3e] (H-RRWTFRVTY[dV][NMeR]FTYRKTR-NH2) | 1.1 (≈ 2.76 µg/mL) | – | – | – | – | – | 50 | – | – | – | –
11 | CC[C@H](C)[C@H](NC(=O)[C@H](CCCNC(=N)N)N(C)C(=O)[C@H](NC(=O)[C@H](Cc1ccc(O)cc1)NC(=O)[C@@H](NC(=O)[C@@H](NC(=O)[C@H](CCCNC(=N)N)NC(=O)[C@H](Cc1ccccc1)NC(=O)[C@@H](NC(=O)[C@H](Cc1c[nH]c2ccccc12)NC(=O)[C@@H](N)CCCCN)[C@@H](C)O)C(C)C)[C@@H](C)O)C(C)C)C(=O)N[C@H](C(=O)N[C@@H](Cc1ccc(O)cc1)C(=O)N[C@@H](CCCNC(=N)N)C(=O)N[C@@H](CCCNC(=N)N)C(=O)N[C@H](C(=O)N[C@@H](CCCNC(=N)N)C(N)=O)[C@@H](C)O)[C@@H](C)O [4e] (H-KWTFRVTY[dV][NMeR]ITYRRTR-NH2) | 0.2 (≈ 0.463 µg/mL) | – | – | – | – | – | 50 | – | – | – | –
12 | CN[C@H](CC(C)C)C(=O)N[C@H]1C(=O)N[C@@H](CC(N)=O)C(=O)N[C@H]2C(=O)N[C@H]3C(=O)N[C@H](C(=O)N[C@H](C(=O)O)c4cc(O)cc(O)c4-c4cc3ccc4O)[C@H](O)c3ccc(c(Cl)c3)Oc3cc2cc(c3O[C@@H]2O[C@H](CO)[C@@H](O)[C@H](O)[C@H]2O[C@H]2C[C@](C)(N)[C@H](O)[C@H](C)O2)Oc2ccc(cc2Cl)[C@H]1O [Vancomycin, reference compound] | – | – | – | – | – | – | – | 0.6 (≈ 0.87 µg/mL) | – | – | –
13 | Polymyxin B [reference compound] | – | – | – | – | – | – | – | – | 0.8 | 0.8 | 3.0
